Assay results: article PMC13608006 (Journal of medicinal chemistry, 2018)

How the values were obtained:
EV-A71 = assay: antiviral CPE assay, anti-EV-A71 in LLC cells; type: cell-based, enterovirus 71 (EV-A71); details: SI50 = CC50/EC50
CV-B3 (CVB3-H3) = type: cell-based, coxsackievirus B3; details: SI50 = CC50/EC50
PV-1 = type: cell-based, poliovirus-1; details: SI50 = CC50/EC50
CVB3-H3-C179F = type: cell-based, coxsackievirus B3
in vitro = details: human

SMILES: CC(C)n1ncc2c(C(=O)Nc3ccccc3F)cc(-c3cccs3)nc21 [JX001, N-(2-Fluorophenyl)-1-isopropyl-6-(thiophen-2-yl)-1H-pyrazolo[3,4-b]pyridine-4-carboxamide]
- SI50 (EV-A71 in LLC cells) (EV-A71): SI50: 21.7
- SI50 (CV-B3 in HeLa cells) (CV-B3 (CVB3-H3)): SI50: 8.9
- SI50 (PV-1 in HeLa cells) (PV-1): SI50: 1.8
- inhibition of CVB3-H3-C179F (missense mutation in the 2C coding domain) (CVB3-H3-C179F): resistant

SMILES: CC(C)n1ncc2c(C(=O)Nc3cccc(S(N)(=O)=O)c3)cc(-c3cccs3)nc21 [JX025, 1-Isopropyl-N-(3-sulfamoylphenyl)-6-(thiophen-2-yl)-1H-pyrazolo[3,4-b]pyridine-4-carboxamide]
- SI50 (EV-A71 in LLC cells) (EV-A71): SI50: 19.2
- SI50 (PV-1 in HeLa cells) (PV-1): SI50: 10.0
- CC50 (in vitro): > 200 µM
- CC50 (in vitro; CC50 (anti-PV-1 in HeLa cells column)): 50 µM

SMILES: CC(C)n1ncc2c(C(=O)Nc3cc(S(N)(=O)=O)ccc3F)cc(-c3cccs3)nc21 [JX068, N-(2-Fluoro-5-sulfamoylphenyl)-1-isopropyl-6-(thiophen-2-yl)-1H-pyrazolo[3,4-b]pyridine-4-carboxamide]
- SI50 (EV-A71 in LLC cells) (EV-A71): SI50: 50.0
- SI50 (CV-B3 in HeLa cells) (CV-B3 (CVB3-H3)): SI50: 25.7
- SI50 (PV-1 in HeLa cells) (PV-1): SI50: 2.9

SMILES: CC(C)n1ncc2c(C(=O)Nc3cc(C(N)=O)ccc3F)cc(-c3cccs3)nc21 [JX073, N-(5-Carbamoyl-2-fluorophenyl)-1-isopropyl-6-(thiophen-2-yl)-1H-pyrazolo[3,4-b]pyridine-4-carboxamide]
- SI50 (EV-A71 in LLC cells) (EV-A71): SI50: 50.0
- SI50 (CV-B3 in HeLa cells) (CV-B3 (CVB3-H3)): SI50: 23.5
- SI50 (PV-1 in HeLa cells) (PV-1): SI50: 3.8
